| melting point [°C] | Structure (SMILES) |
| --- | --- |
| 123 to 125 | O=C(NCCCc1ccncc1)N(CCC12CC3CC(CC(C3)C1)C2)CC1CC1 |
| 222 to 225 | CN(C)c1ccc(C2(c3ccc(N(C)C)cc3N(C)C)OC(=O)c3ccc(N(C)C)cc32)cc1 (centres undefined) |
| 222 to 223 | O=C(NCc1ccccn1)Nc1cc(NC(=O)c2ccccc2)ccn1 |
| 27.3 | C=CCOc1ccc(OC[C@H]2CC[C@H](C=C)CC2)c(F)c1F |
| 140 | COc1ccc2ccc(OS(=O)(=O)C(F)(F)F)c(-c3nnc(Cl)c4ccccc34)c2c1 |
| 138 to 139 | CC(=O)OC1C(CO)OC(n2cnc3c(N)ncnc32)C1OC(C)=O (centres undefined) |
| 112 to 113 | Cc1nc2sccn2c(=O)c1C |
| 80 | COc1ccc(C=O)cc1OCc1ccc2ccccc2c1 |
| 143 to 144 | OCc1ccnc(OCc2cn3c(Cl)cccc3n2)c1 |
| 135 to 137 | CC(C)Cn1c(=O)n(C)c(=O)c2c1ncn2CCCO |
| 74 to 75 | COc1ccccc1C(N)=CC#N |
| 134 | CCC(=O)Oc1cc(OC)cc(OC)c1C(=O)C=Cc1ccc2c(c1)OCO2 |
| 216 to 217 | CS(=O)(=O)c1c2ccccc2c(C=O)c2ccccc12 |
| 272 to 273 | NC(=O)c1[nH]c2ccc(Cl)cc2c1S(=O)(=O)c1cccc(Cl)c1 |
| 146 to 148 | COc1cccc(P(=O)(c2ccc(C)cc2)c2ccc(C)cc2)c1I |
| 165 to 166 | C=CCn1ccnc1C(O)(c1ccccc1)c1ccc(Cl)cc1 (centres undefined) |
| 125 to 126 | COCCc1nc2c(N)nc3ccccc3c2n1CCC(=O)N1CCOCC1 |
| 124 to 125 | CC(C)(O)c1ccc(CNC(=O)c2cccnc2Oc2ccc3nsnc3c2)c(F)c1 |
| 226 to 228 | CCc1nn(Cc2nnc(N)o2)c(CC)c1Oc1cc(Cl)cc(Cl)c1 |
| 47 to 48 | Cc1cc(C)c(C=NCc2ccc(Cl)nc2)c(C)c1 |
| 169 to 172 | O=C(O)C#CC(O)(c1ccc(OCc2ccc3ccccc3n2)cc1)c1ccc(OCc2ccc3ccccc3n2)cc1 |
| 100 to 102 | COc1ccc(C2(C#Cc3cccc(N)c3)CCCC(=O)C2)cc1OC1CCCC1 (centres undefined) |
| 155 | Cc1cc(Cl)nc(N(C(N)=O)c2ccccc2[N+](=O)[O-])n1 |
| 210 to 212 | COc1ccc(NC(=O)c2ccc(-c3ccc(S(C)=O)cc3)c(C)c2)cc1N1CCN(C)CC1 (centres undefined) |

| melting point [°C] | Structure (SMILES) |
| --- | --- |
| 110 to 112 | CC1Cc2ccc([N+](=O)[O-])cc2C=N1 (centres undefined) |
| 124 to 126 | COC(=O)c1cc(F)c([N+](=O)[O-])cc1NC(C)=O |
| 136 to 138 | CN(C)C(=O)Nc1ccc(S(=O)(=O)CCc2ccccc2)c(Cl)c1 |
| 137 to 138 | Cc1cccc(N2C(=O)CC(Cl)C2=O)c1 (centres undefined) |
| 146 to 147 | COc1cc(C(C)C)c2c(c1)S(=O)(=O)N(COc1cc(C)nn1C)C2=O |
| 106 to 108 | CCCCc1cc(C(=O)O)c(=O)n(CCCC)c1C |
| 136 to 139 | Fc1ccc2[nH]c(SCC(F)(F)F)nc2c1 |
| 178 | Cc1ccc2cc(NS(=O)(=O)c3cccc(Cl)c3C)ccc2n1 |
| 118 to 119 | Oc1ccc2c(c1)OCC(c1cccc(C(F)(F)F)c1)C2c1ccc(OCCN2CCCCC2)cc1 (centres undefined) |
| 194 to 196 | O=C1c2ccccc2C(=O)c2c(O)c3c(c(O)c21)CCCC3 |
| 142 to 144 | CC(C)(C)OC(=O)NC1CCCCc2cc(OCC3CCCCC3)c(Br)cc21 (centres undefined) |
| 118 to 125 | CCOC(=O)C1=Cc2cc(Cl)c(O)cc2OC1C(F)(F)F (centres undefined) |
| 110 to 112 | COc1ccc(C(=O)[C@H]2CC=CC[C@H]2C(=O)O)cc1OC (relative stereo) |
| 140 to 142 | COC(=O)C1=Cc2cc(-c3ccc(OC(C)C)cc3)ccc2S(=O)(=O)CC1 |
| 140 to 141 | O=S(=O)(Nc1cccnc1Nc1ccccc1)c1ccccc1Cl |
| 126 | CSc1cc(C(C)C)c(NC(=O)C2c3ccccc3COc3ccc(C)cc32)c(C(C)C)c1 (centres undefined) |
| 155 to 156 | CN(C)S(=O)(=O)c1cc(Cl)c(Cl)c(Cl)c1SCSC#N |
| 142 to 144 | COC(=O)CN(C)C(=O)c1c(OC)ccc2c(Br)c(OC)ccc12 |
| 158 | CC(Oc1ccc(Cl)cc1[N+](=O)[O-])c1ccnc2ncnn12 (centres undefined) |
| 86 to 88 | Cn1cc(C(=O)C(C)(C)C)c(=O)c(-c2cccc(C(F)(F)F)c2)c1 |
| 94 | CCCCCCCCc1ccc(-c2ccc(COc3ccc(OCC(C)OC(=O)OCCCC)cc3)cc2)cc1 (centres undefined) |
| 232 to 234 | Oc1ccc(-c2nc(-c3ccc(Cl)cc3)nc(-c3ccc(O)cc3O)n2)c(O)c1 |
| 382 to 384 | O=C(O)c1ccc2c(=O)n3c(nc2c1)C(=Cc1ccccc1)CC3 |
| 110 to 112 | CCCc1c(OCc2cccc(C(=O)NCCCc3cccnc3)c2)ccc(C(C)=O)c1O |

| melting point [°C] | Structure (SMILES) |
| --- | --- |
| 191 to 194 | CS(=O)(=O)CCCn1cc(C(Cc2ccccc2Br)=NO)c2ccc(Cl)c(Cl)c21 |
| 148 to 149 | CCC(CC)c1ccc(C=O)c2nc(Oc3c(C)cc(Cl)cc3Cl)n(C)c12 |
| 180 to 182 | c1ccc2c(c1)CC(CN1CCN(c3ccc4c(c3)CCO4)CC1)C2 |
| 123 to 137 | O=C(c1ccc(F)cc1)C1CCN(CCN(C(=O)c2ccc([N+](=O)[O-])cc2)c2cccc(C(F)(F)F)c2)CC1 |
| 122 to 125 | CCCc1c(Br)c2ccc(C(N)=O)cc2n1Cc1ccccc1Br |
| 88 to 90 | CCCC(=O)c1cc(O)c(O)c([N+](=O)[O-])c1 |
| 77 to 79 | COc1ccc(COCc2cccc(C(=O)O)c2)cc1OC1CC2CCC1C2 (centres undefined) |
| 100 | CCN(CC)C(=O)CCS(=O)(=O)c1cc(-c2ccccc2)nc2ccccc12 |
| 161 to 163 | CCC(C)C(OCc1ccccc1)C1C(C(=O)NCC(=O)O)NC(C2CC2)C1[N+](=O)[O-] (centres undefined) |
| > 250 | Nc1ncc(C(=O)Cl)cc1Cl |
| 51 to 52 | Cc1occc(=O)c1OCc1ccccc1 |
| 100 to 102 | COC(=O)c1c(NC(=O)C(C)(C)C)c(Cl)cc(OC)c1OC |
| 89 to 90.5 | Oc1onc(CCCc2cccc(OCc3ccccc3)c2)c1C(c1ccccc1)c1ccccc1 |
| 110 to 111 | CCOC(=O)C1=C(CO)NC(C(F)(F)F)=C(C(=O)OCC)C1c1cccc2nonc12 (centres undefined) |
| > 250 | O=CNc1c2c(nc3ccccc13)CCc1cnn(-c3ccccc3)c1-2 |
| 120 | [N-]=[N+]=NCc1cc(=O)c(OCc2ccccc2)cn1Cc1ccccc1 |
| 275 | Cc1c(O)ccc2c(=O)c(-c3ccc(Cl)cc3)coc12 |
| 174 to 176 | CC(Oc1cccc2c1C(=O)N(C1CCC(=O)NC1=O)C2=O)c1ccc2ccccc2c1 (centres undefined) |
| 143 to 144 | CCOC(=O)CCCCc1oc(=O)[nH]c1-c1ccc(Cl)cc1 |
| 114 to 115 | Cc1ccc(C)c(OCCCC(C)(C)C(=O)Nc2cccc(C3=NCCCO3)c2)c1 |
| 177 to 181 | C=CC(=O)N1CC[C@H]2[C@H]1[C@@H](CCC)C(=O)N2S(C)(=O)=O (relative stereo) |
| 129 to 131 | CCOCc1nc2c(N)nc3ccccc3c2n1CCCC(=O)OCC |
| 195 | O=C1N(c2cc(Cl)cc(Cl)c2)C(=O)C2(Cc3ccc(-c4nnn[nH]4)cc3)CCCN12 (centres undefined) |
| 188 to 189 | O=[N+]([O-])c1c(Cl)cccc1-c1nc2ccccc2n1CC(O)CO (centres undefined) |

| melting point [°C] | Structure (SMILES) |
| --- | --- |
| 116 to 120 | CC1CCN(c2cc3nc(C(C)(C)C)sc3cc2[N+](=O)[O-])CC1 |
| 175 to 176 | NC(=O)c1ccc(-c2cccc3cc(Cc4cccc(C(F)(F)F)c4)sc23)cc1 |
| 142 to 146 | CC(=O)OC1CC2CCC3C(CCC4(C)C(C(C)=O)CCC34)C2(C)CC1Br (centres undefined) |
| 200 to 202 | O=C1C(=O)c2ccccc2C2=C1SCC(CN1CCC(CO)CC1)O2 (centres undefined) |
| 197 | COc1cc2cc3c(nc2cc1OC)CCc1cc(Cl)ccc1-3 |
| 96 to 97 | CCOC(=O)c1cc(Cl)c(Cl)c(C2=NOCC2)c1C |
| 218 to 219 | CC(C)(C(N)=O)c1ccc(C(=O)O)cc1 |
| 172 | O=C(O)Cc1cccc2c(C3CCCC3)nccc12 |
| 277 to 278 | NNC(=O)[C@@H]1C[C@]2(NC(=O)NC2=O)c2cc(F)ccc2O1 |
| 150 to 152 | S=C(NCCN1CCOCC1)Nc1nccs1 |
| 74 to 75 | CCN(CC)C(=O)n1cnc(S(=O)(=O)C(F)(F)Br)n1 |
| 112 to 114 | C=C(COCc1ccccc1)C(O)C(NC=O)C(=O)OCC (centres undefined) |
| > 300 | O=c1[nH]c(-c2csc3ccccc23)nc2ccc(N3CCCCC3)cc12 |
| 169 to 173 | COC(=O)C12CCC(C(=O)O)(CC1)CC2 |
| 78 to 79 | CCCCN(C(=O)c1cc(C)oc1C)C1CC(C)(C)NC(C)(C)C1 |
| 115 to 116 | O=C(NC(Cc1ccc(C(F)(F)F)cc1)C(=O)c1ccc(F)cc1)c1cc(=O)cco1 (centres undefined) |
| 142 to 143 | COP(=O)(CCC(C)(C)c1ccc(O)cc1O)OC |
| 206 to 209 | Cc1c(C(N)=O)c2ccccc2n2c(N3CCCC3)nc(-c3noc(C4CC4)n3)c12 |
| 171 to 175 | Nc1ccc(S(=O)(=O)Nc2ccccc2C(=O)NCCCn2ccnc2)cc1 |
| 94 | c1ccc(CNCCOc2ccc3ccccc3c2)cc1 |
| 166 to 167 | CCCN1C=CSC1S(=O)(=O)N=NC(=O)Nc1nc(OC)cc(OC)n1 (centres undefined) |
| 181 to 182 | CCCOc1ccc(/C=C/C(=O)OC(C)(C)C)cc1-c1nc2c(c(C)nn2CCC)c(=O)[nH]1 |
| 134 to 136 | OC1c2cc(OCc3ccc4ccccc4n3)ccc2OCCC1Oc1cccnc1 (centres undefined) |

| Structure (SMILES) | melting point [°C] |
| --- | --- |
| N#Cc1ccc(NC(=O)n2ccc3cc(Oc4cc(CC(N)=O)ncn4)ccc32)cc1C(F)(F)F | 204 to 209 |
| Cc1cccc2c1N(Cc1ccccn1)C(=O)C(NC(=O)Nc1cccc(-c3nnn[nH]3)c1)N=C2c1ccccc1F (centres undefined) | 174 to 182 |
| O=C(Cl)c1ccncc1 | 160 |
| CSC1C=C2C=CC=CN2N1[N+](=O)[O-] (centres undefined) | 225 |
